A short description of assay [1]: glucagon-like peptide-1 release potency in STC-1, concentration-response, half-maximal inhibitory concentration in the STC-1 line (AID 1117345). It counts as functional, cell-based.
The nature of assay [2]: Potency on glucagon-like peptide 1 release, dose-response in NCI-H716 cell line, half maximal inhibitory concentration (AID 1117344). It counts as functional, cell-based.
Assay [3] concerns the target RNA-editing ligase 1, mitochondrial (Trypanosoma brucei brucei, UniProt P86926). Description: inhibition of trypanosome RNA editing ligase – biochemical, fluorescence, Trypanosoma brucei, dose response (AID 1117295). The format is functional.
A short description of assay [4]: viability loss in A549 lung cells – cell-based, 24 h, CellTiter-Glo luminescence, cherry-picks, cytotoxicity control, dose response (AID 1053115). The format is functional. To be noted: A549, 24 h.
A short description of assay [5]: M. tuberculosis growth inhibition, HTS (AID 449762). The format is functional.
Assay [6] has as its target Mitogen-activated protein kinase 10 (Homo sapiens, UniProt P53779). The assay is described as follows: Dose response biochemical screening assay for inhibitors of c-Jun N-Terminal Kinase 3 (JNK3). [Related pubchem assays: 746 ].
Assay [7] is described as follows: Luminescence-based cell-based high throughput dose response assay to identify activators of the DAF-12 from the parasite S. stercoralis (ssDAF-12). The format is functional.
The target of assay [8] is T1, Oxysterols receptor LXR-beta (Homo sapiens, UniProt P55055).
T1 sequence (P55055 whole entry): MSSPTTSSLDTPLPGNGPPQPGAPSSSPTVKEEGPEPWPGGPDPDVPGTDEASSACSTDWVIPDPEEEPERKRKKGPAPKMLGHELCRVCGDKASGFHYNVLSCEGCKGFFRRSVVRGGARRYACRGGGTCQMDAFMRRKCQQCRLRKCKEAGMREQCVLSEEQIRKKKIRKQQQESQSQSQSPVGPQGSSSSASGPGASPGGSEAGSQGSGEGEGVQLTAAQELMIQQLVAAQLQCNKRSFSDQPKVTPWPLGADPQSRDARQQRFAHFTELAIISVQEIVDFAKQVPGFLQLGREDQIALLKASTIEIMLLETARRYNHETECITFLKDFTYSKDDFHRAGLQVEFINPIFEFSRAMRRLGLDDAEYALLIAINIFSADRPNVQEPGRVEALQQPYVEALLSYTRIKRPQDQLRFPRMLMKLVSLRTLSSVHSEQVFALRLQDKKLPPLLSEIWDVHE
The assay is described as follows: LXR agonists, Gal4 luciferase reporter, dose response, counter-screen for ssDAF-12 agonist project, cell-based, luminescence, HEK293, S. stercoralis campaign (AID 720737). The format is functional. To be noted: read-out: IC50 (the source's name). (In a reporter assay the amount or activity of a reporter protein is the signal.)

The nature of assay [9]: Dd2 parasite growth inhibition in erythrocytes – SYBR Green, dry powder samples, set 9, dose response (AID 1159568). The format is functional, cell-based.
Assay [10] is described as follows: BioA aminotransferase inhibition, coupled fluorescent readout – biochemical, coupled fluorescence displacement, 20-point, dry powder, dose response (AID 743357). The format is functional.

The source made the active and inactive calls.

Chain of Mitogen-activated protein kinase 10 (P53779 whole entry): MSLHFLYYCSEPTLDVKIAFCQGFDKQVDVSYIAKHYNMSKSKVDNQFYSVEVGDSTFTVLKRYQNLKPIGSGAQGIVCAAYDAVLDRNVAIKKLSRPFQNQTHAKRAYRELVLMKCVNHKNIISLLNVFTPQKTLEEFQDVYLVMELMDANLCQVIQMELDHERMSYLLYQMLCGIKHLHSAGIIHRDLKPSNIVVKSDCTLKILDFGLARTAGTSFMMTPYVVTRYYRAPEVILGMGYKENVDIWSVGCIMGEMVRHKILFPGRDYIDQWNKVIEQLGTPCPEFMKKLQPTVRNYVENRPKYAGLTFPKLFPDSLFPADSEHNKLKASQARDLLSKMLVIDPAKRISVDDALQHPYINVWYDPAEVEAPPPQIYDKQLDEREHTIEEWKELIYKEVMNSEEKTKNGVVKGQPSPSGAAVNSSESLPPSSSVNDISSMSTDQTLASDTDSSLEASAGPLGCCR
Chain of RNA-editing ligase 1, mitochondrial (P86926 whole entry): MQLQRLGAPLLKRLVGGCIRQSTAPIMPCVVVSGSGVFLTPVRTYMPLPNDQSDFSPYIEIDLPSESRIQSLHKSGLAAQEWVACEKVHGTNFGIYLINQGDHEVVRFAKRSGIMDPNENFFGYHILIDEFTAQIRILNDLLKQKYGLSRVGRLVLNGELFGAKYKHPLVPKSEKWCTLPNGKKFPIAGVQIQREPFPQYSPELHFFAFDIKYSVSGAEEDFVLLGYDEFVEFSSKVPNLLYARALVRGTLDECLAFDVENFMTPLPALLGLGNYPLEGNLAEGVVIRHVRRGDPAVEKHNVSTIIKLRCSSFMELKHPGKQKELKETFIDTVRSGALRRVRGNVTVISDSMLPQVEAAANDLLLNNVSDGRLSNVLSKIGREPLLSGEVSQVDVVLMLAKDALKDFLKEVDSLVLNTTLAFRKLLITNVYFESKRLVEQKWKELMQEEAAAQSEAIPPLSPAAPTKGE

On to `O=C(Nc1cccc2c(=O)cc(-c3nnn[nH]3)oc12)c1ccc(OCCCCc2ccccc2)cc1`, for which the IC50 in assay [1] and in assay [2] was > 40 µM (inactive) in each case.
Regarding `O=C(O)c1ccnc(C(=O)O)c1`, in assay [3], the IC50 is > 96.6 µM (inactive).
For the compound `OC[C@@H]1Nc2ccc(-c3ccccc3)cc2[C@@H]2[C@H]1CCN2Cc1ccc(F)cc1`, the AC50 in assay [4] was > 60 µM (inactive).
As to `C/C(CC(=O)Nc1ccc(C)c(Cl)c1)=N\NC(=O)Cc1cnc(N)s1`, in assay [5], the IC50 was > 100 µM (active).
Consider `Cc1cccc(/N=C/c2c(O)[nH]c3ccccc23)n1`, for which the half-maximal inhibitory concentration (IC50) in assay [6] is on record as 41.7 µM (not active).
Take `Oc1[nH]ncc1/C=N/c1ccc(Oc2ccccc2)cc1`: the IC50 in assay [7] is > 67.5 µM (inactive). Moreover, the EC50 in assay [8] is > 67.5 µM (inactive).
In the case of `O=C(Nc1ccccc1F)N1CCCCN2[C@H](CO)[C@@H](c3ccc(/C=C/c4ccccc4)cc3)[C@H]2C1`, the AC50 in assay [9] is 1.72 µM (active).
Consider `N#Cc1ccc(N2CCN(C(=O)c3ccc4c(c3)OCO4)CC2)cc1`, for which the AC50 in assay [10] is 16.8 µM (active).

As a reminder, the IC50 is the concentration at which inhibition is half-maximal. The term AC50 denotes the concentration at which the activity in the assay is half-maximal.

The record behind these values is ChEMBL document CHEMBL1201862, “PubChem BioAssay data set” (2004).
